Structures can show the parent of a compound that is named as a salt.
Assays:
H^+ -K^+ -ATPase = experiment: K^+ Stimulated ATPase Activity; assay type: biochemical, pig
Description: A. K^+ Stimulated ATPase Activity
The effects of a single high concentration (1 mM) of a compound of structure (I) on H^+ -K^+ -ATPase were determined at pH 6.1 and pH 7.4. Preferred compounds of structure (I) were also tested over a range of concentrations to determine IC50 values at pH 6.1 and 7.4.
(i) Preparation of Lyophilised Gastric Vesicles (H^+ -K^+ -ATPase)
H^+ -K^+ -ATPase was prepared from the lyophilised gastric vesicles of pig fundic mucosa after the method of Saccomani et. al. (Biochem and Biophys. Acta., 465, 311, 1977).
(ii) K^+ Stimulated ATPase Activity
Compounds of structure (I) were pre-incubated with H^+ -K^+ -ATPase preparation 30 μg protein/ml from (i) in 10 mM Pipes/Tris buffer pH 6.1 and pH 7.4.
After 30 minutes at 37° the pre-incubation was diluted 5-fold with assay buffer to start the ATPase reaction. The conditions in the assay are 100 mM Pipes/Tris, 2 mM MgCl2, 10 mM KCl, 5 μg/ml nigericin, 2 mM Na2 ATP, pH 7.0. After an incubation at 37° for 15 minutes the inorganic phosphate released was determined by the method of Yoda & Hokin (Biochem. Biophys. Res. Com. 40, 880, 1970).
The effect of the same concentration of compound of structure (I) (pre-incubated with H^+ -K^+ -ATPase preparation at pH 7.4 as described above) on the recovery of 100 nmole of inorganic phosphate was also determined. […]

[1] = test system: rabbit intact gastric glands (dibutyryl cAMP stimulated); experiment: Aminopyrine (AP) accumulation in intact gastric glands; assay type: cell-based, New Zealand white rabbits; conditions: Oryctolagus cuniculus, 0.5 h; 300 μM dibutyryl cAMP, 30 minutes at 37° C, pH 7.4; amount required to inhibit stimulated aminopyrine accumulation by 50%
Description: B. Aminopyrine (AP) accumulation in intact gastric glands
The effect of a single concentration (100 μm) of a compound of structure (I) on dibutyryl cAMP stimulated AP […] in rabbit intact gastric glands was determined. Preferred compounds of structure (I) were tested over a range of concentrations to determine the IC50 value.
(i) Preparation of intact gastric glands.
Intact gastric glands were prepared from New Zealand white rabbits by the method of Berghindh et al. (Acta. Physio. Scand. 96, 150, 1976). Gastric mucosal scrapings were digested at 37° C. for 45-60 min. with Collagenase (100 U, Type 1, Sigma), and glands harvested by coarse filtration and sedimentation.
Test compound was incubated with glands and 300 μM dibutyryl cAMP for 30 minutes at 37° C. Incubating medium contained 132.5 mM NaCl, 5.4 mM KCl, 1.0 mM NaH2 PO4, 5.0 mM Na2 HPO4, 1.2 mM MgSO4, 1.0 mM CaCl2, 11.1 mM glucose, 2.0 mg/ml rabbit albumin, 10 μg/ml phenol red, approximately 0.3 uM[^14 C] […] (110 mCi/mmole), pH 7.4.
After incubation, glands were centrifuged and the supernatant removed. The glands were dried, weighed and dissolved in NaOH. The distribution of radioactivity between the supernatant and glands is then used to calculate the AP ratio after the method of Berglindh et al. (Acta. Physiol. Scand. 97, 401, 1976).
The IC50 value is the amount of compound required to inhibit the stimulated accumulation of aminopyrine by 50%.

[2] = test system: histamine stimulated gastric acid secretion; experiment: Rat: Lumen perfused stomach (histamine stimulated gastric acid secretion); assay type: in vivo
From the text: C. Rat: Lumen perfused stomach (histamine stimulated gastric acid secretion).
Using a modification of the procedure described by Ghosh and Schild (Br. J. Pharmacology, 13, 54, 1958), ED50 values after either intraduodenal (i.d) or intravenous (i.v) administration were obtained as follows: […]

[3] = i.d. (intraduodenal) administration

SMILES	IC50 [1]	further results
COc1ccc2[nH]c([S+]([O-])Cc3nccc(N4CCCCC4)n3)nc2c1 (stereo not shown) [Example 3, 5-methoxy-2-(4-piperidino-2-pyrimidinylmethylsulphinyl)-(1H)-benzimidazoleCalcium Salt 2.5H2 O]	16000 nM	inhibition of potassium stimulated H^+ -K^+ ATPase (H^+ -K^+ -ATPase; pre-incubation pH 6.1, 30 minutes at 37°): found to inhibit; inhibition of potassium stimulated H^+ -K^+ ATPase (H^+ -K^+ -ATPase; pre-incubation pH 7.4, 30 minutes at 37°): found to inhibit; ED50 ([2]; iv, i.v. administration): 1.4 µmol/kg
COc1ccc2[nH]c([S+]([O-])Cc3nccc(N4CCCC4)n3)nc2c1 (stereo not shown) [Example 7, 5-methoxy-2-(4-pyrrolidino-2-pyrimidinylmethylsulphinyl)-(1H)-benzimidazole]	2440 nM	–
COc1ccc2[nH]c([S+]([O-])Cc3nccc(N(C)C)n3)nc2c1 (stereo not shown) [Example 9, 5-methoxy-2-(4-dimethylamino-2-pyrimidinylmethylsulphinyl)-(1H)-benzimidazole]	1200 nM	ED50 [2, 3]: 2.4 µmol/kg
COc1ccc2[nH]c([S+]([O-])Cc3ncnc(N4CCCCC4)c3C)nc2c1 (stereo not shown) [Example 11, 5-methoxy-2-(5-methyl-6-piperidino-4-pyrimidinylmethylsulphinyl)-(1H)-benzimidazole]	6150 nM	–
COc1ccc2[nH]c([S+]([O-])Cc3ncnc(N4CCCC4)c3C)nc2c1 (stereo not shown) [Example 13, 5-methoxy-2-(5-methyl-6-pyrrolidino-4-pyrimidinylmethylsulphinyl)-(1H)-benzimidazole]	320 nM	ED50 [2, 3]: 2.8 µmol/kg
COc1ccc2[nH]c([S+]([O-])Cc3ncnc(N4CCOCC4)c3C)nc2c1 (stereo not shown) [Example 15, 5-methoxy-2-(5-methyl-6-morpholino-4-pyrimidinylmethylsulphinyl)-(1H)-benzimidazole]	5000 nM	–
COc1ccc2[nH]c([S+]([O-])Cc3ncnc(N(C)C)c3C)nc2c1 (stereo not shown) [Example 17, 5-methoxy-2-(5-methyl-6-dimethylamino-4-pyrimidinylmethylsulphinyl)-(1H)-benzimidazole]	3330 nM	–
COc1ccc2[nH]c([S+]([O-])Cc3cc(N4CCCCC4)ncn3)nc2c1 (stereo not shown) [Example 19, 5-methoxy-2-(6-piperidino-4-pyrimidinylmethylsulphinyl)-(1H)-benzimidazole]	2640 nM	–

Reference: US4777172A, “Pyrimidylalkylthio benzimidale compounds, pharmaceutical compositions and use” (Smith Kline & French Laboratories Limited, priority 1986, dated 1988)
